How the values were obtained:
[1] = test system: rat cardiomyocytes; experiment: Rat cardiomyocyte culture with or without doxorubicin, cell suffering by LDH assay; assay type: cell-based; details: 48 hours
Description: The effects of 3-(R)-[3-(2-methoxyphenylthio)-2-(S)-methyl-propyl]amino-3,4-dihydro-2H-1,5-benzoxathiepine were assessed in the following cell model: rat cardiomyocytes were placed in culture either in the presence or in the absence of doxorubicin. After 48 hours, cell suffering was quantified by assay of the concentration of lactate dehydrogenase (LDH); LDH is […].

[2] = Cytotoxicity of the compound itself (statement, no method)
[3] = Effect on normal functioning of the cardiovascular system (earlier work of the inventors); details: even in strong concentrations

SMILES | Effect on the toxic effects of doxorubicin / viability of cardiomyocytes (LDH) ([1]; compound at 10 μM, with doxorubicin) | Cytotoxicity [2] | Effect on normal functioning of the cardiovascular system [3] | Effect on viability of cardiomyocytes (LDH) ([1]; doxorubicin at 1 and 10 μM, comparable with Triton X-100)
COc1ccccc1SC[C@@H](C)CN[C@@H]1COc2ccccc2SC1 [3-(R)-[3-(2-methoxyphenylthio)-2-(S)-methyl-propyl]amino-3,4-dihydro-2H-1,5-benzoxathiepine] | significantly reduces the toxic effects of doxorubicin | not cytotoxic | does not affect the normal functioning of the cardiovascular system | –
COc1cccc2c1C(=O)c1c(O)c3c(c(O)c1C2=O)C[C@@](O)(C(=O)CO)C[C@@H]3O[C@H]1C[C@H](N)[C@H](O)[C@H](C)O1 [doxorubicin, reference compound] | – | – | – | significantly affects the viability of cardiomyocytes

From patent publication US9433603B2, “Use of 3-(R)-[3-(2-methoxyphenylthio)-2-(S)-methylpropyl]amino-3,4-dihydro-2H-1,5-benzoxathiepine for preventing and/or treating cardiotoxic effects caused by chemotherapy and/or radiation” (PIERRE FABRE MEDICAMENT, priority 2011, dated 2016)
